Experimental data reported in article PMC6130628, “Some pharmacokinetic parameters of salvianolic acid A following single-dose oral administration to rats” (Pharmaceutical Biology, 2018).
Where two headings read alike, the source gives them in different places.

Tests used:
[1] = Pharmacokinetic study in vivo (plasma, LC–MS, noncompartmental); settings: both sexes, Sprague-Dawley, rat, rats; for MRT last: read-out: MRT0–t; for AUC(0-t) / Cmax: single dose
Description: Ninety-six healthy, intact Sprague-Dawley rats (male/female, 1/1, 185-215 g, Certificate No. SCXK 2006-0009) were purchased from Vital River Laboratories (Beijing, China). The rats were maintained in air-conditioned animal quarters with alternating 12 h light/dark cycles at a room temperature of 22 ± 2 °C and a relative humidity of 50 ± 10%. The rodents were given a commercial rat chow and water ad libitum. The experiment started after acclimation to the facilities for 7 days. All animal studies were conducted in accordance with “Principles of laboratory animal care” (NIH publication No. 85-23, revised 1985) and under protocols approved by the Ethic Committee of Laboratory Animals of the Affiliated Hospital of Qingdao University ([…] 2013-2-4-01). Rats were fasted overnight (∼12 h) and had free access to water throughout the experimental period. […] The doses applied in this study were determined according to, on the one hand, the doses applied in pharmacodynamic experiments in rats (Yang et al. [2011a]; Yang et al. [2011b]; Yu et al. [2012]; Hou et al. [2017]), and on the other hand, the results of our preliminary absorption experiments. The blood samples were taken crossly from the orbital sinus into tubes pretreated with heparin before dosing and subsequently at 0.083, 0.167, 0.25, 0.333, 0.5, 0.75, 1, 2, 4, 8, 12 and 24 h postdosing. After blood sampling, the samples were centrifuged at 4,500 rpm for 15 min at 4 °C to obtain 200 μL of plasma samples. These samples were immediately frozen and maintained at -80 °C until analysis. Plasma samples were thawed at room temperature before processing. To a 200 μL aliquot of plasma sample, 10 μL of VC (10 mg/mL) and 10 μL of the IS spiking solution (butyl paraben, 1 μg/mL) were added. Then, the mixture was acidified with 100 μL of 1 mol/L HCl and vortex-mixed with 800 μL of EtOAc for 3 min. […] EtOAc (800 μL) was added again to the lower aqueous phase and the extraction process was repeated. […] The residue was reconstituted in 100 μL of MeOH-H2O (50:50, v/v, containing VC 100 μg/mL). After centrifugation at 13,400 rpm for 5 min, 20 μL of the supernatant was injected to the LC-MS system. DAS pharmacokinetic software Data Analysis System Version 3.0 (Bontz Inc., Beijing, China) was used for pharmacokinetic analysis of Sal A concentrations. The noncompartmental model was applied for analysis of the data following intravenous and oral administration of Sal A. The peak plasma concentration (Cmax), the corresponding time (Tmax), the mean residence time (MRT) and the area under the concentration-time curve (AUC) could all be obtained. After intravenous and oral administration of Sal A to rats, plasma concentration was determined by LC-MS. The data obtained from each group was averaged. […] The oral bioavailability (F) was calculated by using AUCoral/dose divided by AUCiv/dose.

[2] = Excretion of Sal A from rats (feces, urine, bile; UPLC–MS/MS); format: in vivo, Sprague-Dawley rats; settings: single oral dose 20 mg/kg
Description: Twelve healthy, intact Sprague-Dawley rats (male/female, 1/1, 185-215 g, Certificate No. SCXK 2006-0009) were purchased from Vital River Laboratories (Beijing, China). The rats were maintained in air-conditioned animal quarters with alternating 12 h light/dark cycles at a room temperature of 22 ± 2 °C and a relative humidity of 50 ± 10%. The rodents were given a commercial rat chow and water ad libitum. The experiment started after acclimation to the facilities for 7 days. The studies were conducted under protocols approved by the Ethics Committee of Laboratory Animals of the Affiliated Hospital of Qingdao University ([…] 2013-2-4-01). In the urine and feces excretion studies, rats were treated as follows. After acclimation to the facilities for 7 days in metabolism cages and being fasted overnight (∼12 h) with free access to water, six rats (male/female, 1/1) were given a single dose of Sal A at 20 mg/kg orally. Blank feces and urine were got prior to administration. […] These samples were immediately frozen and maintained at -80 °C until analysis. In the bile excretion study, rats were treated as follows. After acclimation to the facilities for 7 days and being fasted overnight (∼12 h) with free access to water, six rats (male/female, 1/1) received a bile duct intubation surgery. An oral dose of 20 mg/kg were given to the postoperative awake rats, and bile samples were collected prior and after the administration (from 0 to 2, 2 to 4, 4 to 6, 6 to 8, 8 to 12 and 12 to 24 h). The samples were immediately frozen and maintained at -80 °C immediately until analysis. After drying, feces were soaked in purified water containing VC 100 μg/mL (5 mL/g) overnight and treated with ultrasonic for 10 min. Homogenate was centrifuged at 13,400 rpm for 10 min. 200 μL of the supernatant was got for the UPLC-MS/MS analysis, along with 200 μL of urine and bile samples. Sample preparation was the same as sample preparation in “Pharmacokinetic study in vivo”.

[3] = parameters: method as in Lai et al. [2011]; settings: rats, salvianolic acid extract 800 mg/kg oral (Sal A 5.71% of mixture); ref Lai et al. [2011]; cited from earlier work

O=C(/C=C/c1ccc(O)c(O)c1/C=C/c1ccc(O)c(O)c1)O[C@H](Cc1ccc(O)c(O)c1)C(=O)O [Sal A, Salvianolic acid A]
MRT last ([1]; iv, 50 ug/kg, i.v. 50 µg/kg): 0.62 h | Tmax ([1]; iv, 50 ug/kg, i.v. 50 µg/kg, read-out: Tmax): 0.08 h | half-life ([1]; iv, 50 ug/kg, i.v. 50 µg/kg, read-out: t1/2 (converted)): 6.16 h | AUC(0-t) ([1]; iv, 50 ug/kg, i.v. 50 µg/kg): 205 ng·h/mL | Cmax ([1]; iv, 50 ug/kg, i.v. 50 µg/kg): 579 ng/mL | bioavailability ([1]; po, 5 mg/kg, oral 5 mg/kg vs i.v. 50 µg/kg, AUCoral/dose divided by AUCiv/dose, read-out: F (oral bioavailability)): 0.52% | Tmax ([1]; po, 5 mg/kg, oral 5 mg/kg, read-out: Tmax): 1 h | half-life ([1]; po, 5 mg/kg, oral 5 mg/kg, read-out: t1/2 (converted)): 1.96 h | bioavailability ([1]; po, 10 mg/kg, oral 10 mg/kg vs i.v. 50 µg/kg, read-out: F (oral bioavailability)): 0.41% | Tmax ([1]; po, 10 mg/kg, oral 10 mg/kg, read-out: Tmax): 1 h | half-life ([1]; po, 10 mg/kg, oral 10 mg/kg, read-out: t1/2 (converted)): 1.72 h | bioavailability ([1]; po, 20 mg/kg, oral 20 mg/kg vs i.v. 50 µg/kg, read-out: F (oral bioavailability)): 0.39% | Tmax ([1]; po, 20 mg/kg, oral 20 mg/kg, read-out: Tmax): 1 h | half-life ([1]; po, 20 mg/kg, oral 20 mg/kg, read-out: t1/2 (converted)): 1.79 h | bioavailability ([1]; po, 20 mg/kg, oral in pure form, over the doses 5, 10 and 20 mg/kg, read-out: absolute (oral) bioavailability): 0.39 to 0.52% | half-life ([1]; po, 20 mg/kg, oral, over the doses 5, 10 and 20 mg/kg, read-out: half-life period (t1/2)): 1.72 to 1.96 h | Tmax ([1]; po, oral, 5–20 mg/kg, read-out: time to peak concentration in plasma (Tmax)): ≤ 1 h | MRT last ([1]; oral 5 mg/kg): 2.91 h | AUC(0-t) ([1]; oral 5 mg/kg): 106 ng·h/mL | Cmax ([1]; oral 5 mg/kg): 31.5 ng/mL | MRT last ([1]; oral 10 mg/kg): 2.33 h | AUC(0-t) ([1]; oral 10 mg/kg): 167 ng·h/mL | Cmax ([1]; oral 10 mg/kg): 57.4 ng/mL | MRT last ([1]; oral 20 mg/kg): 2.36 h | AUC(0-t) ([1]; oral 20 mg/kg): 317 ng·h/mL | Cmax ([1]; oral 20 mg/kg): 112 ng/mL | excretion via bile, mean % of the dose ([2]; bile duct intubated rats, 0–24 h): 0.00373% | dose excreted ([2]; both sexes, Sprague-Dawley, rat, feces, bile and urine, rats, read-out: recovery (accumulated excretion through feces, bile and urine), % of administered dose): < 1% | urinary excretion, mean % of the dose ([2]; rats, 0–96 h): 0.00252% | absolute bioavailability of Sal A [3]: 2.5%
